Measured values published in patent US20070128217A1 (priority 2003, published 2007).

Experiments:
[1] = system: antibodies in sera from SARS patients (sera 1a, 1b, 2, 6, 37, 62, London, SARS-yellow, SARS-green); assay type: binding, human; parameters: Binding of serum 6 to linear peptides of protein X1 of SARS-CoV Urbani / Binding of serum 37 to linear peptides of protein X1 of SARS-CoV Urbani / Binding of serum 6 to looped/cyclic peptide (PEPSCAN-ELISA) / Binding of serum 37 to looped/cyclic peptide (PEPSCAN-ELISA) / Binding of serum 37 to looped/cyclic peptides of protein X1 of SARS-CoV Urbani / Binding of serum 6 to linear peptides of protein X2 / Binding of serum 37 to linear peptides of protein X2 / Binding of serum 37 to looped/cyclic peptides of protein X2 of SARS-CoV Urbani / Binding of serum 6 to linear peptides of protein M of SARS-CoV Urbani / Binding of serum 37 to linear peptides of protein M of SARS-CoV Urbani / Binding of serum 6 to looped/cyclic peptides of protein M of SARS-CoV Urbani / Binding of serum 37 to looped/cyclic peptides of protein M of SARS-CoV Urbani / Binding of serum 6 to linear peptides of protein X3 of SARS-CoV Urbani / Binding of serum 37 to linear peptides of protein X3 of SARS-CoV Urbani / Binding of serum 37 to looped/cyclic peptides of protein X3 of SARS-CoV Urbani / Binding of serum 6 to linear peptides of protein X4 of SARS-CoV Urbani / Binding of serum 37 to linear peptides of protein X4 of SARS-CoV Urbani / Binding of serum 37 to looped/cyclic peptides of protein X4 of SARS-CoV Urbani / Binding of serum 6 to linear peptides of protein X5 of SARS-CoV Urbani / Binding of serum 37 to linear peptides of protein X5 of SARS-CoV Urbani / Binding of serum 37 to looped/cyclic peptides of protein X5 of SARS-CoV Urbani / Binding of serum 6 to linear peptides of protein N of SARS-CoV Urbani / Binding of serum 37 to linear peptides of protein N of SARS-CoV Urbani / Binding of serum 6 to linear peptide (PEPSCAN-ELISA) / Binding of serum 1a to looped/cyclic peptides of protein N of SARS-CoV Urbani / Binding of serum 1b to looped/cyclic peptides of protein N of SARS-CoV Urbani / Binding of serum 2 to looped/cyclic peptides of protein N of SARS-CoV Urbani / Binding of serum 6 to looped/cyclic peptides of protein N of SARS-CoV Urbani / Binding of serum 37 to looped/cyclic peptides of protein N of SARS-CoV Urbani / Binding of serum 62 to looped/cyclic peptides of protein N of SARS-CoV Urbani / Binding of serum London to looped/cyclic peptides of protein N of SARS-CoV Urbani / Binding of serum SARS-green to looped/cyclic peptides of protein N of SARS-CoV Urbani: unit not given here
[2] = system: recombinant human anti-SARS-CoV antibody 03-018; assay type: binding; parameters: Binding of antibody 03-018 to linear peptides of the N protein of SARS-CoV Urbani / Binding of antibody 03-018 to looped/cyclic peptides of the N protein of SARS-CoV Urbani: unit not given here
[3] = system: rabbit serum obtained by immunizing a rabbit with the SARS-CoV strain Frankfurt 1; assay type: binding; parameters: Binding of a rabbit serum to linear peptides / Binding of a rabbit serum to looped peptides / Rabbit serum linear peptides / Rabbit serum looped peptides / Binding of a rabbit serum to linear peptides of protein N of SARS-CoV Urbani (Rabbit serum linear peptides) / Binding of a rabbit serum to looped/cyclic peptides of protein N of SARS-CoV Urbani (Rabbit serum looped peptides): unit not given here
[4] = system: control sera (pooled serum of ten healthy LUMC hospital workers; commercial negative donor pooled serum from the Dutch bloodbank); assay type: binding, human; parameters: Binding of Control serum LUMC to linear peptides / Binding of Control serum Blood-bank to linear peptides / Binding of Control serum LUMC to looped peptides / Binding of Control Serum Blood-Bank to Looped peptides / Binding of Control serum LUMC to linear peptides of the protein M of SARS-CoV Urbani / Binding of Control serum Blood-bank to linear peptides of the protein M of SARS-CoV Urbani / Binding of Control serum LUMC to looped peptides of the protein M of SARS-CoV Urbani / Binding of Control Serum Blood-Bank to Looped peptides of the protein M of SARS-CoV Urbani: unit not given here

## WLTYHGAIKLDDKDP
[1]
  Binding of serum 1a to linear peptides of protein N of SARS-CoV Urbani: 0.3
  Binding of serum 1a to looped/cyclic peptides of protein N of SARS-CoV Urbani: 0.2
  Binding of serum 1b to linear peptides of protein N of SARS-CoV Urbani: 0.2
  Binding of serum 1b to looped/cyclic peptides of protein N of SARS-CoV Urbani: 0.1
  Binding of serum 2 to linear peptides of protein N of SARS-CoV Urbani: 0.2
  Binding of serum 2 to looped/cyclic peptides of protein N of SARS-CoV Urbani: 0.2
  Binding of serum 6 to linear peptides of protein N of SARS-CoV Urbani: 0.2
  Binding of serum 6 to looped/cyclic peptides of protein N of SARS-CoV Urbani: 0.1
  Binding of serum 37 to linear peptides of protein N of SARS-CoV Urbani: 0.7
  Binding of serum 37 to looped/cyclic peptides of protein N of SARS-CoV Urbani: 0.4
  Binding of serum 62 to linear peptides of protein N of SARS-CoV Urbani: 0.8
  Binding of serum 62 to looped/cyclic peptides of protein N of SARS-CoV Urbani: 0.3
  Binding of serum London to linear peptides of protein N of SARS-CoV Urbani: 0.6
  Binding of serum London to looped/cyclic peptides of protein N of SARS-CoV Urbani: 0.3
  Binding of serum SARS-green to linear peptides of protein N of SARS-CoV Urbani: 0.3
  Binding of serum SARS-green to looped/cyclic peptides of protein N of SARS-CoV Urbani: 0.0
  Binding of serum SARS-yellow to linear peptides of protein N of SARS-CoV Urbani: 0.7
  Binding of serum SARS-yellow to looped/cyclic peptides of protein N of SARS-CoV Urbani: 0.2
[2]
  Binding of antibody 03-018 to linear peptides of the N protein of SARS-CoV Urbani: 0.1
  Binding of antibody 03-018 to looped/cyclic peptides of the N protein of SARS-CoV Urbani: 0.2
[3]
  Binding of a rabbit serum to linear peptides of protein N of SARS-CoV Urbani (Rabbit serum linear peptides): 0.2
  Binding of a rabbit serum to looped/cyclic peptides of protein N of SARS-CoV Urbani (Rabbit serum looped peptides): 0.2
[4]
  Control Serum Blood-Bank Looped peptides: 0.4
  Control serum Blood-bank linear peptides: 0.8
  Control serum LUMC linear peptides: 0.7
  Control serum LUMC looped peptides: 0.4

## WPQIAQFAPSASAFF
[1]
  Binding of serum 1a to linear peptides of protein N of SARS-CoV Urbani: 0.2
  Binding of serum 1a to looped/cyclic peptides of protein N of SARS-CoV Urbani: 0.5
  Binding of serum 1b to linear peptides of protein N of SARS-CoV Urbani: 0.1
  Binding of serum 1b to looped/cyclic peptides of protein N of SARS-CoV Urbani: 0.3
  Binding of serum 2 to linear peptides of protein N of SARS-CoV Urbani: 0.1
  Binding of serum 2 to looped/cyclic peptides of protein N of SARS-CoV Urbani: 0.5
  Binding of serum 6 to linear peptides of protein N of SARS-CoV Urbani: 0.2
  Binding of serum 6 to looped/cyclic peptides of protein N of SARS-CoV Urbani: 0.3
  Binding of serum 37 to linear peptides of protein N of SARS-CoV Urbani: 0.6
  Binding of serum 37 to looped/cyclic peptides of protein N of SARS-CoV Urbani: 0.8
  Binding of serum 62 to linear peptides of protein N of SARS-CoV Urbani: 0.5
  Binding of serum 62 to looped/cyclic peptides of protein N of SARS-CoV Urbani: 0.9
  Binding of serum London to linear peptides of protein N of SARS-CoV Urbani: 0.5
  Binding of serum London to looped/cyclic peptides of protein N of SARS-CoV Urbani: 0.5
  Binding of serum SARS-green to linear peptides of protein N of SARS-CoV Urbani: 0.3
  Binding of serum SARS-green to looped/cyclic peptides of protein N of SARS-CoV Urbani: 0.5
  Binding of serum SARS-yellow to linear peptides of protein N of SARS-CoV Urbani: 0.7
  Binding of serum SARS-yellow to looped/cyclic peptides of protein N of SARS-CoV Urbani: 0.6
[2]
  Binding of antibody 03-018 to linear peptides of the N protein of SARS-CoV Urbani: 0.1
  Binding of antibody 03-018 to looped/cyclic peptides of the N protein of SARS-CoV Urbani: 0.3
[3]
  Binding of a rabbit serum to linear peptides of protein N of SARS-CoV Urbani (Rabbit serum linear peptides): 0.1
  Binding of a rabbit serum to looped/cyclic peptides of protein N of SARS-CoV Urbani (Rabbit serum looped peptides): 0.6
[4]
  Control Serum Blood-Bank Looped peptides: 0.8
  Control serum Blood-bank linear peptides: 0.6
  Control serum LUMC linear peptides: 0.6
  Control serum LUMC looped peptides: 0.9

## WVATEGALNTPKDHI
[1]
  Binding of serum 1a to linear peptides of protein N of SARS-CoV Urbani: 0.2
  Binding of serum 1a to looped/cyclic peptides of protein N of SARS-CoV Urbani: 0.3
  Binding of serum 1b to linear peptides of protein N of SARS-CoV Urbani: 0.1
  Binding of serum 1b to looped/cyclic peptides of protein N of SARS-CoV Urbani: 0.2
  Binding of serum 2 to linear peptides of protein N of SARS-CoV Urbani: 0.3
  Binding of serum 2 to looped/cyclic peptides of protein N of SARS-CoV Urbani: 0.3
  Binding of serum 6 to linear peptides of protein N of SARS-CoV Urbani: 0.2
  Binding of serum 6 to looped/cyclic peptides of protein N of SARS-CoV Urbani: 0.2
  Binding of serum 37 to linear peptides of protein N of SARS-CoV Urbani: 0.7
  Binding of serum 37 to looped/cyclic peptides of protein N of SARS-CoV Urbani: 0.5
  Binding of serum 62 to linear peptides of protein N of SARS-CoV Urbani: 0.9
  Binding of serum 62 to looped/cyclic peptides of protein N of SARS-CoV Urbani: 0.4
  Binding of serum London to linear peptides of protein N of SARS-CoV Urbani: 0.6
  Binding of serum London to looped/cyclic peptides of protein N of SARS-CoV Urbani: 0.4
  Binding of serum SARS-green to linear peptides of protein N of SARS-CoV Urbani: 0.6
  Binding of serum SARS-green to looped/cyclic peptides of protein N of SARS-CoV Urbani: 0.4
  Binding of serum SARS-yellow to linear peptides of protein N of SARS-CoV Urbani: 0.6
  Binding of serum SARS-yellow to looped/cyclic peptides of protein N of SARS-CoV Urbani: 0.2
[2]
  Binding of antibody 03-018 to linear peptides of the N protein of SARS-CoV Urbani: 0.1
  Binding of antibody 03-018 to looped/cyclic peptides of the N protein of SARS-CoV Urbani: 0.2
[3]
  Binding of a rabbit serum to linear peptides of protein N of SARS-CoV Urbani (Rabbit serum linear peptides): 0.1
  Binding of a rabbit serum to looped/cyclic peptides of protein N of SARS-CoV Urbani (Rabbit serum looped peptides): 0.2
[4]
  Binding of Control Serum Blood-Bank to Looped peptides: 0.5
  Binding of Control serum Blood-bank to linear peptides: 0.8
  Binding of Control serum LUMC to linear peptides: 0.9
  Binding of Control serum LUMC to looped peptides: 0.5
